US20090163577A1, “METHODS AND COMPOSITIONS FOR ANTAGONIZING ANTI-APOPTOTIC Bcl-2-FAMILY PROTEINS” (Burnham Institute for Medical Research, priority 2007, published 2009)
“Also recorded” adds a separate entry of the source. Read-outs that look alike come from different tables or passages of the source. Each block holds one molecule with its values, some of them ahead of it.

How the values were obtained:
Jurkat cells [1] = assay: Cytotoxicity of GA analogs, live cells by Annexin V/PI, Jurkat; details: 20 hrs, 0-50 μM
Bfl-1 = biological target: T1, Bfl-1 (Homo sapiens, UniProt Q16548); assay: FPA competitive FITC-Bid BH3 peptide displacement, Bfl-1 (also HTS); details: for activity in BH3 displacement assays: FPA, FITC-Bid BH3 peptide, compared with GA
T1 sequence (Q16548 1-155 limits assumed): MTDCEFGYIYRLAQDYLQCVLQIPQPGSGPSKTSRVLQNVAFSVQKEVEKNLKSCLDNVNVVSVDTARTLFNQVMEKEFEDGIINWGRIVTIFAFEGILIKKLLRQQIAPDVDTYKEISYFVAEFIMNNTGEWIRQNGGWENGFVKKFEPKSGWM

[2] = system: Bcl-2 over-expressing HL-60 cells; assay: Cytotoxicity in NEO-control vs Bcl-2 over-expressing HL-60 cells; type: cell-based
Excerpt: Data are representative of at least 3 independent experiments.
(§1) Cell Culture, Transfection, and Apoptosis Assays.
We tested the cytotoxic activity of GA against HL-60 cells that had been stably transfected with NEO-control or Bcl-2-expression plasmids (Konopleva et al., Blood 95:3929-3938, 2000).

Jurkat cells [3] = system: Jurkat cells
[4] = rats; cited from earlier work
Bcl-W = biological target: T2, Bcl-W (Homo sapiens, UniProt Q92843); assay: FPA competitive FITC-Bid BH3 peptide displacement, Bcl-W; type: binding; details: 100 nM GST-Bcl-W, 5 nM FITC-Bid BH3 peptide, read-out: IC50 (μM) for Gambogic acid
T2 construct: lacking their C-terminal transmembrane domains (last 20 amino-acids) (“ΔTM”); made in house; host or cells: E. coli XL-1 Blue (pGEX 4T-1)
T2 sequence (Q92843 1-173 limits assumed): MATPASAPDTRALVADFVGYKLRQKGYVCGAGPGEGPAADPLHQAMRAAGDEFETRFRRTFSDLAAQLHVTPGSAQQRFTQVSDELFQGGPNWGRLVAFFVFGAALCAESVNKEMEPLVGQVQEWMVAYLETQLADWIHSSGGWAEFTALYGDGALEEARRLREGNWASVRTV
Excerpt: (§2) (A) Structure of gambogic acid.
(§3) Fluorescence Polarization Assays (FPAs).
(§4) Competitive Peptide Displacement Assays.

Bcl-XL = biological target: T3, Bcl-XL (Homo sapiens, UniProt Q07817); assay: FPA competitive FITC-Bid BH3 peptide displacement, Bcl-XL; type: binding; details: 100 nM GST-Bcl-XL, 5 nM FITC-Bid BH3 peptide, read-out: IC50 (μM) for Gambogic acid
T3 construct: lacking their C-terminal transmembrane domains (last 20 amino-acids) (“ΔTM”); made in house; host or cells: E. coli XL-1 Blue (pGEX 4T-1)
T3 sequence (Q07817 1-213 limits assumed): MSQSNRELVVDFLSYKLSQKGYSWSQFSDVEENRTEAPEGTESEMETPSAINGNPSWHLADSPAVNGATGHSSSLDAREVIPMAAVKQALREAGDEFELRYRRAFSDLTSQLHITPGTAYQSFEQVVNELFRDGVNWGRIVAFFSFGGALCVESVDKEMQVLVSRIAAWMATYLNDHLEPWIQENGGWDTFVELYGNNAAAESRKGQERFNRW
Excerpt: as §2, §3, §4

[5] = system: Bax, Bcl-2, transferrin receptor; details: cited from earlier work
Bcl-B = biological target: T4, Bcl-B (Homo sapiens, UniProt Q9HD36); assay: FPA competitive FITC-Bid BH3 peptide displacement, Bcl-B; type: binding; details: 100 nM GST-Bcl-B, 5 nM FITC-Bid BH3 peptide, read-out: IC50 (μM) for Gambogic acid
T4 construct: lacking their C-terminal transmembrane domains (last 20 amino-acids) (“ΔTM”); made in house; host or cells: E. coli XL-1 Blue (pGEX 4T-1)
T4 sequence (Q9HD36 1-184 limits assumed): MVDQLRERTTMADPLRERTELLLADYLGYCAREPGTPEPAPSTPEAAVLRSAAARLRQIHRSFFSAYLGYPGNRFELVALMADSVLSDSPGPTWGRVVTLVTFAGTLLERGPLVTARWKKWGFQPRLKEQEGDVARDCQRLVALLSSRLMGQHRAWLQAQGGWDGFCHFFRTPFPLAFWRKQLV
Excerpt: as §2, §3, §4

bax+/+ bak+/+ MEFs = assay: Cytotoxicity in wild-type MEFs; type: cell-based, mouse; details: 20 hrs
Excerpt: as §1
GA-induced cytotoxicity is only partly Bcl-2-dependent. Anti-apoptotic Bcl-2-family proteins suppress mitochondria-initiated cell death by inhibiting pro-apoptotic Bcl-2 members Bax and Bak (Kroemer and Reed, Nat. Med. 6:513-519, 2000; Reed, Am. J. Pathol. 157:1415-1430, 2000; Li et al., Cell 116 (2 Suppl.):S57-59, 2 p. following S59). Consequently, when cells are genetically engineered to lack Bax and Bak, then Bcl-2 and related cytoprotective proteins no long display an anti-apoptotic phenotype (Wei et al., Science 292:727-730, 2001). Cells doubly deficient in Bax and Bak therefore provide a context for assessing the mechanism of GA-induced toxicity. GA killed transformed mouse fibroblasts (MEFs) generated from bax+/+ bak+/+ embryos in a concentration-dependent manner (FIG. 6A). […] We conclude therefore that GA induces cytotoxicity through mechanisms that are only partly dependent on Bcl-2-family proteins.

BIR3 of XIAP = assay: FPA, rhodamine-SMAC peptide binding to BIR3 of XIAP; details: not shown
tumor cell lines = tumor cell lines in culture; cited from earlier work
Mcl-1 = biological target: T5, Mcl-1 (Homo sapiens, UniProt Q07820); assay: FPA competitive FITC-Bid BH3 peptide displacement, Mcl-1; type: binding; details: 100 nM GST-Mcl-1, 5 nM FITC-Bid BH3 peptide, read-out: IC50 (μM) for Gambogic acid
T5 construct: lacking their C-terminal transmembrane domains (last 20 amino-acids) (“ΔTM”); made in house; host or cells: E. coli XL-1 Blue (pGEX 4T-1)
T5 sequence (Q07820 1-330 limits assumed): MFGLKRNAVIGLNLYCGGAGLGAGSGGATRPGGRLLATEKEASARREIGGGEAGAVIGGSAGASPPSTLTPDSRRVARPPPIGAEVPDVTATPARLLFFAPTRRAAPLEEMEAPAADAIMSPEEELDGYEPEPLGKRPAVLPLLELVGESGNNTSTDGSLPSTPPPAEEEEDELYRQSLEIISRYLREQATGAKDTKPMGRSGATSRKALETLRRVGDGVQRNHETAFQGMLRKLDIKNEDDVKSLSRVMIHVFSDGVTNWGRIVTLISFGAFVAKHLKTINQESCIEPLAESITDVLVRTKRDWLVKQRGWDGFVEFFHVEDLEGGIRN
Excerpt: as §2, §3, §4

Hsp70 = Hsp70 (Homo sapiens, UniProt P0DMV8); assay: FPA, FITC-ATP binding to Hsp70; details: not shown
Sequence of Hsp70 (P0DMV8 whole entry): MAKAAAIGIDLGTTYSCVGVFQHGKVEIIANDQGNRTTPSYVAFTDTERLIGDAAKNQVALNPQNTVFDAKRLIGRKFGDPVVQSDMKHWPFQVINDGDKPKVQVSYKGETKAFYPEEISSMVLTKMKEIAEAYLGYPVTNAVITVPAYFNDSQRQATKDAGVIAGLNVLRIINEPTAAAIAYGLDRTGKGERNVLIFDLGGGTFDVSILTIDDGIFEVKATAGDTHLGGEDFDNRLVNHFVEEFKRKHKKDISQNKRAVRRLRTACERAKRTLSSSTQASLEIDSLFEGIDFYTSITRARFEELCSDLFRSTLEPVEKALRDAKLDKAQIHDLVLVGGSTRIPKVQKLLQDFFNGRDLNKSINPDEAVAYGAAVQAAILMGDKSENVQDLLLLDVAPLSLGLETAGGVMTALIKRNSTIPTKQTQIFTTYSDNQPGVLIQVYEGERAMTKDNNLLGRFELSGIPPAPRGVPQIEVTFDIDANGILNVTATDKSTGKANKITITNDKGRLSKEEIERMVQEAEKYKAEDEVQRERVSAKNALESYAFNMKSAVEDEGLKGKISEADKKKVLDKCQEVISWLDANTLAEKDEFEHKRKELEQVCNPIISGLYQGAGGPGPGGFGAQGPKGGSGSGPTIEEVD

[6] = system: prostate cancer cell line PPC1; assay: Pro-caspase-3 processing, immunoblot, PPC1; type: cell-based; details: PPC1, 20 hrs, 0 to 10 μM
Protocol: To determine GA's affect on processing of pro-caspase-3, a marker of apoptosis, cells of the prostate cancer cell line PPC1 were treated with gambogic acid at concentrations from 0 to 10 μM. After 20 hrs, the cells were collected and the cell lysates were analyzed by SDS-PAGE/immunoblotting using anti-caspase 3 antibody. GA induced clearly detectable proteolytic processing of pro-caspase-3 at concentrations≧2 μM.

[7] = system: HL-60 acute promyelomonocytic leukemia; assay: Apoptosis, Annexin V/PI staining, HL-60; type: cell-based; details: Homo sapiens, HL-60, within 20-24 hrs, read-out: concentration required to induce apoptosis of 50% of the cells
Protocol: (§5) Gambogic acid was used to treat HL-60 (black symbols) or Jurkat (white symbols) cells at concentrations of 0, 0.1, 0.2, 0.5, 2, 5 μM (from left to right).
as §1
(§6) GA overcomes cytoprotection of Bcl-2 in leukemia cells. GA has cytotoxic activity against various tumor cell lines in culture and induces apoptosis (Zhang et al., Bioorg. Med. Chem. 12:309-317, 2004; Zhao et al., Biol. Pharm. Bull. 27:998-1003, 2004). We confirmed the apoptosis-inducing activity of GA using Jurkat T-cell acute lymphoblastic leukemia and HL-60 acute promyelomonocytic leukemia cell lines, using Annexin V/propidium iodide (PI) staining, counting Annexin V+/PT− cells as apoptotic (FIG. 3). The concentration of GA required to induce apoptosis of 50% of the cells within 20-24 hrs was ˜0.2 μM and ˜0.5 μM for Jurkat and HL-60, respectively.

Bcl-2 = biological target: T6, Bcl-2 (Homo sapiens, UniProt P10415); assay: FPA competitive FITC-Bid BH3 peptide displacement, Bcl-2; type: binding
T6 construct: lacking their C-terminal transmembrane domains (last 20 amino-acids) (“ΔTM”); made in house; host or cells: E. coli XL-1 Blue (pGEX 4T-1)
T6 sequence (P10415 1-219 limits assumed): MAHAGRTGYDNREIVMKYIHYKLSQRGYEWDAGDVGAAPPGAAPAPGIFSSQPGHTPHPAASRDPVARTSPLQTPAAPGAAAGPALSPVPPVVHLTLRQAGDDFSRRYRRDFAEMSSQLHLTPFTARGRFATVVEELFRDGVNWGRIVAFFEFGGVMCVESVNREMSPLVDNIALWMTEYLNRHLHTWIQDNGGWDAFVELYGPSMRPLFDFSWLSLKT
Excerpt: as §2, §3, §4

[8] = system: anti-apoptotic Bcl-2-family proteins (Bcl-2, Bcl-XL, Bfl-1, Bcl-W, Mcl-1); assay: tBid-induced SMAC release from isolated HeLa mitochondria; type: biochemical, human
Protocol: Mitochondria Purification and Protein Release Assays. HeLa cells were pelleted by centrifugation, and then washed once in HM buffer (10 mM HEPES, pH 7.4, 250 mM mannitol, 10 mM KCl, 5 mM MgCl2, 1 mM EGTA), containing 1 mM PMSF and a mixture of protease inhibitors (Roche Molecular Biochemicals). The cell pellet was then homogenized in HM buffer by 50 strokes of a dounce homogenizer, using a B-type pestle. The homogenate was centrifuged twice at 600 g for 5 min to remove nuclei and debris. The resulting supernatant was centrifuged at 10,000 g for 10 min, and the resulting mitochondria-containing pellet was washed twice with the HM buffer.
For mitochondrial protein release assays, 10 μl of mitochondria (50 μg) were added into a final volume of 50 μl HM buffer containing gambogic acid, tBid or tBid pre-incubated with gambogic acid or Bcl-2 family proteins at 30° C. for 15 min. The reactions were further incubated at 30° C. for 40-60 min, then mitochondria were pelleted by centrifugation and the supernatants were collected, boiled in Laemmli sample buffer, and analyzed by SDS-PAGE/immunoblotting using anti-SMAC antibody (Zhai et al., J. Biol. Chem. 280:15815-15824, 2005).
GA neutralizes activity of Bcl-2-family proteins in vitro. An active, N-terminally truncated form of the pro-apoptotic BH3-containing protein Bid (tBid) induces release of apoptogenic proteins such as SMAC from isolated mitochondria in vitro (Becattini et al., Chem. Biol. 11:1107-1117, 2004; Zhai et al., J. Biol. Chem. 280:15815-15824, 2005; Luciano et al., J. Biol. Chem. 280:15825-15835, 2005). […] Samples were centrifuged to generate supernatants that were analyzed by SDS-PAGE/immunoblotting using anti-SMAC antibody. […] Complete restoration was typically achieved with 5 μM GA, representing an approximately 10:1 molar excess of GA relative to anti-apoptotic Bcl-2-family proteins.

GST-Bcl-XL = biological target: T7, GST-Bcl-XL (Homo sapiens, UniProt Q07817); assay: TR-FRET assay, FITC-Bad BH3 peptide binding to GST-Bcl-XL; details: 10 nM GST-Bcl-XL, 10 nM FITC-Bad BH3 peptide, read-out: apparent IC50, inhibition of FITC-Bad BH3 peptide binding
T7 construct: lacking their C-terminal transmembrane domains (last 20 amino-acids) (“ΔTM”); made in house; host or cells: E. coli XL-1 Blue (pGEX 4T-1)
T7 sequence (Q07817 1-213 limits assumed): as the sequence (Q07817 1-213 limits assumed) above
Protocol: (A) Binding of GST-Bcl-XL to FITC-BH3 peptide was assayed by TR-FRET. The final reaction mixtures contain 10 nM of FITC-Bad BH3 peptide, 2 nM of anti-GST-Turbium, and various concentrations of GST-Bcl-XL proteins in PBS buffer containing 0.005% Tween 20. (B) Analysis of GA competition with BH3 peptide for Bcl-XL binding by TR-FRET. Reaction mixtures of final 20 μl volume contain 2 μl of various concentrations of GA with 10 nM FITC-Bad BH3 peptide, 2 nM anti-GST-Terbium, and 10 nM GST-Bcl-XL protein in PBS buffer containing 0.005% Tween 20. The mixtures are incubated for 30 min at room temperature. TR-FRET signals were measured using excitation at 330 nm, emission for FITC signal at 490 nm, and emission for terbium signal at 520 nm. Data are presented as 520 nm/490 nm ratio (mean±std dev; n=3).
Time-Resolved-Fluorescence Resonance Energy Transfer (TR-FRET) Assays. For TR-FRET assays, GST-Bcl-XL and anti-GST-terbium (Invitrogen) were mixed together with the FITC-Bad BH3 peptide in PBS containing 0.005% tween 20 in 96 well plates in a total volume of 20 μl per well. […] TR-FRET signals were measured with a SpectraMax M5 plate reader (Molecular Devices) using the following settings: excitation at 330 nm, emission for FITC signal at 490 nm, and emission for terbium signal at 520 nm. […]

dividing cells = details: cited from earlier work
bax−/− bak−/− MEFs = assay: Cytotoxicity in bax-/- bak-/- MEFs; type: cell-based, mouse; details: 20 hrs; listed as GA
[9] = system: Jurkat T-cell acute lymphoblastic leukemia; assay: Apoptosis, Annexin V/PI staining, Jurkat; type: cell-based; details: Homo sapiens, within 20-24 hrs, read-out: concentration required to induce apoptosis of 50% of the cells
Protocol: as §5, §1, §6

- activity in BH3 displacement assays (Bfl-1): greatly reduced activity
Structure (SMILES): CC(C)=CCCC1(C)C=Cc2c(O)c3c(c(CC=C(C)C)c2O1)OC12C(=CCCC1C(C)(C)O[C@@]2(C/C=C(\C)C(=O)O)C(=O)O)C3=O (stereo partly shown) [Garcinolic acid]
- cytotoxic activity against cultured leukemia cells (Jurkat cells [1]): non-toxic

Structure (SMILES): CN[C@@H]1C[C@H]2O[C@@](C)([C@@H]1OC)n1c3ccccc3c3c4c(c5c6ccccc6n2c5c31)C(=O)NC4 [staurosporine, reference compound]
- effect of Bcl-2 over-expression on cytotoxicity ([2]; HL-60 Bcl-2 vs NEO-control, 8 hrs): block to apoptosis

Structure (SMILES): CC(C)=CCC[C@]1(C)C=Cc2c(O)c3c(c(CC=C(C)C)c2O1)O[C@]12C(C[C@@H]4CC1C(C)(C)O[C@@]2(C/C=C(/C)C(=O)O)C4O)C3=O (stereo partly shown) [tetrahydro-GA]
- cytotoxic potency relative to GA (fold less potent) (Jurkat cells [3]): ~50 fold
- activity in BH3 displacement assays (Bfl-1): greatly reduced activity

Structure (SMILES): CC(C)=CCC[C@]1(C)C=Cc2c(O)c3c(c(CC=C(C)C)c2O1)O[C@]12C(=C[C@@H]4C[C@H]1C(C)(C)O[C@@]2(C/C=C(/C)C(=O)O)C4=O)C3=O [Gambogic acid]
- tolerability [4]: well tolerated
- IC50 (Bcl-W): 2.02 µM
- effect of Bcl-2 over-expression on cytotoxicity [2]: reduced the sensitivity
- IC50 (Bcl-XL): 1.47 µM
- Bax protein levels [5]: increases in Bax protein levels
- Bcl-2 protein levels [5]: reductions in Bcl-2 protein levels
- transferrin receptor internalization [5]: suppressing transferring receptor internalization
- IC50 (Bcl-B): 0.66 µM
- killing of wild-type MEFs (bax+/+ bak+/+ MEFs): killed
- inhibition of rhodamine-SMAC peptide binding (BIR3 of XIAP): did not inhibit
- concentration required for killing 50% of cells (LD50) (tumor cell lines): ~1 µM
- IC50 (Bfl-1): 1060 nM
- suppression of BH3 peptide binding in HTS (Bfl-1; library screen, 10 μM compound): ≥ 50%
- IC50 (Mcl-1): 0.79 µM
- inhibition of FITC-ATP binding (Hsp70): did not inhibit
- concentration giving clearly detectable proteolytic processing of pro-caspase-3 [6]: ≥ 2 µM
- EC50 [7]: ~500 nM
- IC50 (Bcl-2; 100 nM GST-Bcl-2, 5 nM FITC-Bid BH3 peptide, read-out: IC50 (μM) for Gambogic acid): 1.21 µM
- sensitivity to displacement of FITC-BH3 peptide among the six proteins (Bcl-2; FIG. 1): the least
- concentration for complete restoration of tBid-induced SMAC release ([8]; 20 ng tBid, 2 μg Bcl-2-family protein, 50 μg HeLa mitochondria): 5 µM
- restoration of tBid-induced SMAC release ([8]; recombinant Bcl-2, Bcl-XL, Bfl-1, Bcl-W or Mcl-1 added, listed as GA): neutralizes their suppressive effects on mitochondria in a concentration-dependent manner; also recorded: restored tBid-induced SMAC release in a concentration-dependent manner
- tBid-induced release of SMAC ([8]; recombinant Bcl-2-family proteins not added): enhanced
- IC50 (GST-Bcl-XL): 1500 nM
- cell cycle arrest (dividing cells): induces G2/M-phase arrest
- killing of bax−/− bak−/− MEFs (bax−/− bak−/− MEFs): killed; also recorded: retained cytotoxic activity
- EC50 [9]: ~200 nM
